Measured values taken from the supplement of paper PMC10307832.

Experiments:
Assay in all cases: relative viability (nuclei count vs DMSO), 5 days (fraction); higher = more cells survive
Fedratinib + Olaparib = compound: Cc1cnc(Nc2ccc(OCCN3CCCC3)cc2)nc1Nc1cccc(S(=O)(=O)NC(C)(C)C)c1 [Fedratinib] + O=C(c1cc(Cc2n[nH]c(=O)c3ccccc23)ccc1F)N1CCN(C(=O)C2CC2)CC1 [Olaparib] (partner 8 µM)
Procedure, shortened: (§1)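 Lung cancer cell lines in 1536-well plates were dosed by pin tool the day after seeding, either with one drug alone or with a fixed anchor-drug dose plus five library-drug doses (not always all listed) in √10 steps. After 5 days, cells were fixed and their nuclei stained in one step (final 0.05% Triton X-100, 1% formaldehyde, 1 ug/ml Hoechst), then counted on 4× images. Relative viability is the nuclei count in treated wells divided by that in vehicle wells. Values are medians of duplicate plates.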

GW-2580 + Olaparib = compound: COC1=CC=C(C=C1)COC2=C(C=C(C=C2)CC3=CN=C(N=C3N)N)OC [GW-2580] + O=C(c1cc(Cc2n[nH]c(=O)c3ccccc23)ccc1F)N1CCN(C(=O)C2CC2)CC1 [Olaparib] (partner 8 µM)
Procedure, shortened: as §1

GW-2580 + Phenformin = compound: COC1=CC=C(C=C1)COC2=C(C=C(C=C2)CC3=CN=C(N=C3N)N)OC [GW-2580] + N=C(N)NC(=N)NCCc1ccccc1 [Phenformin] (partner 250 µM)
Procedure, shortened: as §1

Fedratinib + Luminespib = compound: Cc1cnc(Nc2ccc(OCCN3CCCC3)cc2)nc1Nc1cccc(S(=O)(=O)NC(C)(C)C)c1 [Fedratinib] + CCNC(=O)c1noc(-c2cc(C(C)C)c(O)cc2O)c1-c1ccc(CN2CCOCC2)cc1 [Luminespib] (partner 0.01 µM)
Procedure, shortened: as §1

GW-2580 + Dasatinib = compound: COC1=CC=C(C=C1)COC2=C(C=C(C=C2)CC3=CN=C(N=C3N)N)OC [GW-2580] + Cc1nc(Nc2ncc(C(=O)Nc3c(C)cccc3Cl)s2)cc(N2CCN(CCO)CC2)n1 [Dasatinib] (partner 0.075 µM)
Procedure, shortened: as §1

UMC-11 was tested. Which relative viability (Fedratinib + Olaparib; first compound 0.1 µM) did it give?
Its relative viability is 0.3.

And the relative viability (Fedratinib + Olaparib; first compound 0.3162 µM)?
The relative viability was 0.33.

And the relative viability (Fedratinib + Olaparib; first compound 1 µM)?
Its relative viability is 0.23.

And the relative viability (GW-2580 + Olaparib; first compound 0.08 µM)?
Its relative viability is 0.358.

And the relative viability (GW-2580 + Olaparib; first compound 0.8 µM)?
The relative viability was 0.375.

What about the relative viability (GW-2580 + Olaparib; first compound 2.53 µM) of the same cell line?
Its relative viability is 0.464.

And the relative viability (GW-2580 + Olaparib; first compound 8 µM)?
Its relative viability is 0.436.

And the relative viability (GW-2580 + Phenformin; first compound 0.08 µM)?
Its relative viability is 0.349.

And the relative viability (GW-2580 + Phenformin; first compound 0.8 µM)?
Its relative viability is 0.311.

What about the relative viability (GW-2580 + Phenformin; first compound 2.53 µM) of the same cell line?
The relative viability was 0.388.

What about the relative viability (GW-2580 + Phenformin; first compound 8 µM) of the same cell line?
The relative viability was 0.343.

What about the relative viability (Fedratinib + Luminespib; first compound 0.1 µM) of the same cell line?
The relative viability was 0.984.

What about the relative viability (Fedratinib + Luminespib; first compound 0.3162 µM) of the same cell line?
The relative viability was 0.887.

And the relative viability (Fedratinib + Luminespib; first compound 1 µM)?
The relative viability was 0.758.

And the relative viability (GW-2580 + Dasatinib; first compound 0.08 µM)?
Its relative viability is 0.572.

What about the relative viability (GW-2580 + Dasatinib; first compound 0.8 µM) of the same cell line?
The relative viability was 0.508.

What about the relative viability (GW-2580 + Dasatinib; first compound 2.53 µM) of the same cell line?
Its relative viability is 0.441.

And the relative viability (GW-2580 + Dasatinib; first compound 8 µM)?
The relative viability was 0.62.
